Holding throughout (assay): MIC assay, VISA and VRSA panel
What all share (assay type): cell-based, Staphylococcus aureus

In one assay the test system is VRS1. The note with it: Staphylococcus aureus. As to the method: (§1) The antibacterial activity of the compounds was tested against a panel of bacteria, including Gram-positive bacteria (S. aureus ATCC29213, S. aureus USA300, S. aureus LIM-2, NR-45881, S. aureus HIP13419, NR-46413, E. faecium E155, E. faecium E7314, E. faecium E980, E. faecalis E1246, E. faecalis E7406 and S. pneumonia 153). The antibacterial activity of the compounds was further tested against S. aureus NY-155, NR-46236, S. aureus HIP12864, NR-46074, S. aureus 880 (BR-VRSA), NR-49120, E. faecalis E1246, E. faecalis E7604, as well as some Gram-negative bacteria (Escherichia coli and Klebsiella pneumoniae). Minimum inhibitory concentrations (MICs) in μg/mL were performed according to the CLSI guidelines. From glycerol stocks, bacterial strains were cultured on blood agar plates and incubated at 37° C. for 18 h. A single colony was transferred to tryptic soy broth (TSB) with 0.002% polysorbate 80 (p80). For the Enterococcus, VISA and VRSA strains, the cultures were grown at 37° C. until the optical density of the suspension reached a level equivalent to the 0.5 McFarland standard. The bacterial suspensions were diluted in TSB with 0.002% p80 to reach a bacterial cell density of 10^6 CFU/mL. In case of the other (vancomycin-sensitive) S. aureus strains, the direct colony suspension method was used. For these strains, after transfer of the colonies to TSB with 0.002% p80, they were immediately diluted to 10^6 CFU/mL, instead of incubated prior to this dilution. In the case of S. pneumonia, direct colony suspension was used by immediately suspending multiple colonies from fresh blood agar plates in TSB+0.002% p80 to an OD600 of 0.5 and subsequent dilution to 10^6 CFU mL^−1 in TSB+0.002% p80+5% lysed horse blood. Antibiotic dilutions for this strains were also made in TSB+0.002% p80+5% lysed horse blood. Both agar and microplates containing S. pneumonia were incubated at 37° C. with 5% CO2 for 24 h with constant shaking (600 rpm). […] The cultures were grown to exponential phase (OD600=0.5) at 37° C. […] In polypropylene 96-well microtiter plates, test compounds were added in biological triplicates and serial diluted 2-fold by transfer and mixing from one well to the next to achieve a final volume of 50 μL per well. An equal volume of bacterial suspension (10^6 CFU mL^−1) was added to the wells. The plates were sealed with breathable membranes and incubated at 37° C. for 24 h with constant shaking (600 rpm). In polypropylene microtiter plates, 100 μL of the test compounds was added to the first row in biological triplicates, and 50 μL of media was added to the other wells. The compounds were subjected to serial dilution by transfer and mixing of 50 μL from one well to the next. Subsequently, 50 μL of bacterial suspension (10^6 CFU/mL) was added to the wells. The plates were sealed with breathable membranes and incubated at 37° C. for 24 h with constant shaking (600 rpm). Positive growth control consisted of wells with bacterial suspension and without antibiotic. Negative growth control consisted of solely media without bacterial suspension or antibiotic. The MICs were determined from the median of a minimum of triplicates.

A further assay has as its system VRS2. The note with it: Staphylococcus aureus. As to the method:
as §1

The test system of a further assay is NRS19. The note with it: Staphylococcus aureus, NRS19. As to the method:
as §1

In another assay the test system is VRS4. Particulars: Staphylococcus aureus. As to the method: as §1
The test system of the next assay is NRS17. Particulars: Staphylococcus aureus, NRS17. As to the method:
as §1

The subject of another assay is VRS7. The note with it: Staphylococcus aureus. As to the method: as §1
In the next assay the test system is VRS11b. Particulars: Staphylococcus aureus. As to the method: as §1
For the next assay, the system named is VRS11a. The note with it: Staphylococcus aureus. As to the method:
as §1

Another assay has as its system NRS51. The note with it: Staphylococcus aureus, NRS51. As to the method:
as §1

The next assay relates to VRS9. The note with it: Staphylococcus aureus. As to the method: as §1
A further assay concerns NRS18. The note with it: Staphylococcus aureus, NRS18. As to the method: as §1
The next assay has as its system VRSA3b. The note with it: Staphylococcus aureus. As to the method: as §1

Converted amounts (≈) assume the structure as drawn.

Results on three compounds are retold here after US20230174584A1, “Antibiotic Compounds” (priority 2019, published 2023).

As to `CN[C@H](CC(C)C)C(=O)N[C@H]1C(=O)N[C@@H](CC(N)=O)C(=O)N[C@H]2C(=O)N[C@H]3C(=O)N[C@H](C(=O)N[C@H](C(=O)O)c4cc(O)cc(O)c4-c4cc3ccc4O)[C@H](O[C@H]3C[C@](C)(N)[C@@H](O)[C@H](C)O3)c3ccc(c(Cl)c3)Oc3cc2cc(c3O[C@@H]2O[C@H](CO)[C@@H](O)[C@H](O)[C@H]2O[C@H]2C[C@](C)(NCc3ccc(-c4ccc(Cl)cc4)cc3)[C@@H](O)[C@H](C)O2)Oc2ccc(cc2Cl)[C@H]1O` [Oritavancin], the MIC in the assay with VRS1 turned out to be 1 mg/L (≈ 0.558 µM); in the assay on VRS2 it was 0.25 mg/L (≈ 0.139 µM); against NRS19, 1 mg/L (≈ 0.558 µM); against VRS4, 1 mg/L (≈ 0.558 µM); against NRS17 it was 4 mg/L (≈ 2.23 µM); in the assay with VRS7 it was 0.5 mg/L (≈ 0.279 µM). In addition, the MIC came to 1 mg/L (≈ 0.558 µM) in the assay on VRS11b; 1 mg/L (≈ 0.558 µM) in the assay with VRS11a; 0.5 mg/L (≈ 0.279 µM) in the assay with NRS51; 2 mg/L (≈ 1.12 µM) in the assay on VRS9; 1 mg/L (≈ 0.558 µM) against NRS18; 0.25 mg/L (≈ 0.139 µM) with VRSA3b.
On to `CCCCCCCCCCNCCN[C@@]1(C)C[C@H](O[C@H]2[C@H](Oc3c4cc5cc3Oc3ccc(cc3Cl)[C@@H](O)[C@@H](NC(=O)[C@@H](CC(C)C)NC)C(=O)N[C@@H](CC(N)=O)C(=O)N[C@H]5C(=O)N[C@H]3C(=O)N[C@H](C(=O)N[C@H](C(=O)O)c5cc(O)c(CNCP(=O)(O)O)c(O)c5-c5cc3ccc5O)[C@H](O)c3ccc(c(Cl)c3)O4)O[C@H](CO)[C@@H](O)[C@@H]2O)O[C@@H](C)[C@H]1O` [Telavancin, reference compound], for which the MIC against VRS1 was 8 mg/L (≈ 4.56 µM); against VRS2, 2 mg/L (≈ 1.14 µM); in the assay with NRS19 it was 0.25 mg/L (≈ 0.142 µM); against VRS4, 4 mg/L (≈ 2.28 µM); in the assay with NRS17 it was 1 mg/L (≈ 0.57 µM); in the assay on VRS7, 4 mg/L (≈ 2.28 µM). The MIC amounted to 8 mg/L (≈ 4.56 µM) against VRS11b; 8 mg/L (≈ 4.56 µM) against VRS11a; 0.125 mg/L (≈ 0.0712 µM) with NRS51; 16 mg/L (≈ 9.11 µM) in the assay with VRS9; 0.25 mg/L (≈ 0.142 µM) in the assay with NRS18; 4 mg/L (≈ 2.28 µM) in the assay with VRSA3b.
On to `CN[C@H](CC(C)C)C(=O)N[C@H]1C(=O)N[C@@H](CC(N)=O)C(=O)N[C@H]2C(=O)N[C@H]3C(=O)N[C@H](C(=O)N[C@H](C(=O)O)c4cc(O)cc(O)c4-c4cc3ccc4O)[C@H](O)c3ccc(c(Cl)c3)Oc3cc2cc(c3O[C@@H]2O[C@H](CO)[C@@H](O)[C@H](O)[C@H]2O[C@H]2C[C@](C)(N)[C@H](O)[C@H](C)O2)Oc2ccc(cc2Cl)[C@H]1O` [Vancomycin, reference compound], for which the MIC was above 128 mg/L with VRS1; 32 mg/L (≈ 22.1 µM) against VRS2; 4 mg/L (≈ 2.76 µM) against NRS19; above 128 mg/L in the assay on VRS4; 8 mg/L (≈ 5.52 µM) with NRS17; above 128 mg/L with VRS7. Also, the MIC in the assay on VRS11b was above 128 mg/L; in the assay on VRS11a it was above 128 mg/L; against NRS51, 4 mg/L (≈ 2.76 µM); in the assay on VRS9 it was above 128 mg/L; against NRS18, 8 mg/L (≈ 5.52 µM); in the assay on VRSA3b, above 128 mg/L.
